What was measured:
[1] = system: binding of DC-SIGN-Fc to DV2 JAM particles; set-up: species or system human; conditions: DV2 JAM coated particles; ANX5 0.31-20 μg/ml, Duramycin 0.625-5 μM, EDTA 1.25 to 25 mM
Method: All ELISA were performed on Maxisorp 96 well plates (Nunc). PBS diluted DV particles (1.106 FIU) were coated overnight at 4° C. […] Wells were saturated with TBS 1×, 10 mM CaCl2, 2% BSA for 2 h at 37° C. All dilutions were in TBS 1×, 10 mM CaCl2, washes in TBS 1×, 10 mM CaCl2, 0.5% Tween 20, and incubations, 1 h at 4° C. Annexin V or Duramycin were added previously to Fc chimera while EDTA was mixed with Fcs′. All Fcs' were 2 μg/ml. Bound Fcs' were detected with a pAb rabbit anti-human IgG-HRP and OPD substrate.

[2] = biological target: binding of CD300a-Fc to DV2 JAM particles (Homo sapiens, UniProt Q9UGN4); experiment: ELISA: binding of CD300a-Fc to DV2 JAM coated particles in the presence of inhibitor; conditions: for inhibition of the binding of CD300a to DV: ANX5 0.31-20 μg/ml or Duramycin 0.625-5 μM added before CD300a-Fc (2 μg/ml); for effect on CD300a-Fc binding to DV (in words): rat mAb 0.625 to 20 μg/ml, EDTA 1.25 to 25 mM mixed with Fc, ANX5, Duramycin added before Fc
Sequence of binding of CD300a-Fc to DV2 JAM particles (Q9UGN4 with tags, fused parts or gaps limits assumed): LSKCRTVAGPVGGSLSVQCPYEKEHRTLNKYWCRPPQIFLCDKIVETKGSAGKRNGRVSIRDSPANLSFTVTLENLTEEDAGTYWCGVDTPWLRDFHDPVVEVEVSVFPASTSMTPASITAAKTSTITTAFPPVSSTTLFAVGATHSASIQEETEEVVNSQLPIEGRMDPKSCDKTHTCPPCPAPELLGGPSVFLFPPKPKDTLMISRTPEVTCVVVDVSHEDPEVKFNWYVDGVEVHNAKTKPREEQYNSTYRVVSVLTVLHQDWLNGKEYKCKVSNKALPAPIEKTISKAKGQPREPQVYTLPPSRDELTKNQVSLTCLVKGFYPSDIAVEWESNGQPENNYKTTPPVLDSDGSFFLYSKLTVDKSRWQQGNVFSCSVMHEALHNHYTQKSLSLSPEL
Method: Graph representing the amount of CD300a-Fc bound by DV2 JAM coated particles in the presence of anti-CD300Ab. Serial dilutions of a rat mAb to CD300a or its IgG2a isotype were mixed with CD300a-Fc before incubation with DV2 JAM coated particles. Residual bound Fc was detected with a HRP conjugated rabbit pAb to human IgG (1/1000) and OPD substrat. Data are represented as mean±SD of three independent experiments performed in duplicates.
(§1) Bar chart representing the amount of TIM3-Fc, CD300a-Fc or DV-SIGN-Fc bound to DV2 JAM particles in the presence of different concentration of Annexin V, a PtdSer specific ligand. DV2 JAM particles were coated in 96 well plates and incubated for one hour at +4° C. with various concentrations of the PtdSer specific ligand Annexin V before the addition of human IgG1-Fc, TIM3-Fc, CD300a-Fc or DV-SIGN-Fc (2 μg/ml). Bound Fcs were detected with a HRP conjugated rabbit pAb to human IgG (1/1000) and OPD substrate. Data are represented as mean±SD of three independent experiments performed in duplicates.
Bar chart representing the amount of CD300a-Fc or DV-SIGN-Fc bound to DV2 JAM particles in the presence of different concentration of Duramycin. DV2 JAM particles were coated in 96 well plates and incubated for one hour at +4° C. with various concentrations of the PtdEth specific ligand Duramycin before the addition of human IgG1-Fc, TIM3-Fc, CD300a-Fc or DV-SIGN-Fc (2 μg/ml). Bound Fcs were detected with a HRP conjugated rabbit pAb to human IgG (1/1000) and OPD substrate. Data are represented as mean±SD of three independent experiments performed in duplicates.
Bar chart representing the amount of CD300a-Fc bound by DV2 JAM coated particles in the presence of EDTA. Two fold serial dilutions of EDTA (1-25 mM) were mixed with CD300a-Fc before incubation with DV2 JAM coated particles. Bound Fcs were detected with a HRP conjugated rabbit pAb to human IgG (1/1000) and OPD substrate. Data shown are mean±SD of duplicates wells and representative of three independent experiments.
All ELISA were performed on Maxisorp 96 well plates (Nunc). PBS diluted DV particles (1.106 FIU) were coated overnight at 4° C. Coated 3-sn-phosphatidyl-Choline, -Ethanolamine or -Serine (10 μg/well, Sigma, Lyon, France) were diluted in ethanol and the wells air dried. Wells were saturated with TBS 1×, 10 mM CaCl2, 2% BSA for 2 h at 37° C. All dilutions were in TBS 1×, 10 mM CaCl2, washes in TBS 1×, 10 mM CaCl2, 0.5% Tween 20, and incubations, 1 h at 4° C. Annexin V or Duramycin were added previously to Fc chimera while EDTA was mixed with Fcs′. All Fcs' were 2 μg/ml. Bound Fcs' were detected with a pAb rabbit anti-human IgG-HRP and OPD substrate.

[3] = system: binding of TIM3-Fc to DV2 JAM particles; experiment: ELISA: binding of TIM3-Fc to DV2 JAM coated particles in the presence of Annexin V; set-up: species or system human; conditions: ANX5 0.31-20 μg/ml, TIM3-Fc 2 μg/ml
Method: as §1
To identify whether CD300a recognized these phospholipids at the surface of virions, DV2 JAM coated particles were challenged with serially diluted concentrations of the PtdSer specific ligand AnnexinV (ANX5) (0.31-20 μg/ml, FIG. 14) or the PtdEth specific ligand Duramycin (0.625-5 μM, FIG. 15) before the addition of Fc coupled molecules.

Row | Substance | effect on DV/DC-SIGN-Fc binding (in words) [1] | inhibition of the binding of CD300a to DV [2] | effect on CD300a-Fc binding to DV (in words) [2] | binding of TIM3-Fc to DV blocked [3]
1 | Annexin V [ANX5] | left unchanged | up to 35% | inhibited in a concentration dependent manner | up to 60%
2 | Duramycin [reference compound] | left unchanged | up to 98% | inhibited in a concentration dependent manner | 
